Eight compounds from patent US20050288273A1, “Antibacterial agents” (priority 2003, published 2005) can be followed below.

In brackets after ≈: the same amount, converted by molar mass.

One data set deals with S. aureus SA-3840. Nature of the data set: Cross resistance antibacterial assay (MIC), strain 9. Format: cell-based. As to conditions: Staphylococcus aureus, SA3840; S. aureus SA-3840, multiple drug resistant (linezolid and methicillin); read-out: Minimum Inhibitory Concentrations in Strain 9. The source says: (§1) Test C—Cross Resistance Antibacterial Assay
The next data set has as its system S. aureus SA-3839. Nature of the data set: Cross resistance antibacterial assay (MIC), strain 8. Format: cell-based. As to conditions: Staphylococcus aureus, SA3839; S. aureus SA-3839, multiple drug resistant (linezolid and methicillin); read-out: Minimum Inhibitory Concentrations in Strain 8.
Description: as §1

The next data set concerns E. faecalis EF-13524. Nature of the data set: Cross resistance antibacterial assay (MIC), strain 2. Format: cell-based. The conditions noted are these: Enterococcus faecalis, EF13524; E. faecalis EF-13524, vancomicin resistant strain; read-out: Minimum Inhibitory Concentrations in Strain 2.
Description: as §1

A further data set has as its system S. pneumoniae SP-3561. Description: Cross resistance antibacterial assay (MIC), strain 11. The conditions noted are these: Streptococcus pneumoniae, SP3561; S. pneumoniae SP-3561, multiple drug resistant (penicillin, macrolide-R, tetracycline etc.); read-out: Minimum Inhibitory Concentrations in Strain 11. Format: cell-based.
Description: as §1

The next data set has as its system S. pyogenes SP1-3541. Nature of the data set: Cross resistance antibacterial assay (MIC), strain 12. In kind it is cell-based. As to conditions: Streptococcus pyogenes, SP13541; S. pyogenes SP1-3541, multiple drug resistant (MLS); read-out: Minimum Inhibitory Concentrations in Strain 12.
Description: as §1

The test system of a further data set is E. faecalis EF-3838. Nature of the data set: Cross resistance antibacterial assay (MIC), strain 3. In kind it is cell-based. The conditions noted are these: Enterococcus faecalis, EF3838; E. faecalis EF-3838, multiple drug resistant (vancomicin, erythromycin, gentamicin); read-out: Minimum Inhibitory Concentrations in Strain 3.
Description: as §1

Another data set deals with E. faeciaum EF4-3836. Description: Cross resistance antibacterial assay (MIC), strain 5. The conditions noted are these: read-out: Minimum Inhibitory Concentrations in Strain 5.
In another data set the test system is S. pneumoniae SP-3536. Nature of the data set: Cross resistance antibacterial assay (MIC), strain 10. In kind it is cell-based. The conditions noted are these: Streptococcus pneumoniae, SP3536; S. pneumoniae SP-3536, multiple drug resistant (B-lactamase and macrolide-R); read-out: Minimum Inhibitory Concentrations in Strain 10.
Description: as §1

A further data set has as its system S. aureus SA-3528. Nature of the data set: Cross resistance antibacterial assay (MIC), strain 7. Format: cell-based. The conditions noted are these: Staphylococcus aureus, SA3528; S. aureus SA-3528, multiple drug resistant (MLS); read-out: Minimum Inhibitory Concentrations in Strain 7.
Description: as §1

Another data set concerns H. influenziae Hi-3113. Nature of the data set: Cross resistance antibacterial assay (MIC), strain 13. In kind it is cell-based. As to conditions: H. influenziae Hi-3113, B-lactamase; read-out: Minimum Inhibitory Concentrations in Strain 13.
Description: as §1
13. H. influenziae Hi-3113: B-lactamase

The test system of another data set is S. aureus SA-2017. Description: Cross resistance antibacterial assay (MIC), strain 6. In kind it is cell-based. The conditions noted are these: Staphylococcus aureus, SA2017; S. aureus SA-2017, multiple drug resistant (methicillin, ciprofloxacin); read-out: Minimum Inhibitory Concentrations in Strain 6.
Description: as §1

The next data set has as its system E. faeciaum EF4-3525. Description: Cross resistance antibacterial assay (MIC), strain 4. As to conditions: read-out: Minimum Inhibitory Concentrations in Strain 4.
The next data set has as its system M. catarrhalis BC3534. Nature of the data set: Antibacterial assay (MIC), standard microtitration, Gram negative. Format: cell-based. As to conditions: Moraxella catarrhalis, BC3534; Gram negative bacteria; read-out: Minimum Inhibitory Concentrations M. catarrhalis BC3534. The source says:
(§2) Test A—Antibacterial Assays

The next data set relates to E. coli Tol C. Described as above. In kind it is cell-based. As to conditions: Escherichia coli, read-out: Minimum Inhibitory Concentrations E. coli Tol C.
Description: as §2

In the next data set the test system is H. influenzae HI3542. The description is as above. Format: cell-based. The conditions noted are these: Haemophilus influenzae, HI3542; Gram negative bacteria; read-out: Minimum Inhibitory Concentrations H. influenzae HI3542.
Description: as §2

A further data set has as its system E. faecalis MGH-2. Description: Antibacterial assay (MIC), standard microtitration, Gram positive. As to conditions: Enterococcus faecalis, MGH2; Gram positive bacteria; read-out: Minimum Inhibitory Concentrations E. faecalis MGH-2. Format: cell-based.
Description: as §2

Another data set has as its system S. aureus UC-76. The description is as above. As to conditions: Staphylococcus aureus, UC76; Gram positive bacteria; read-out: Minimum Inhibitory Concentrations S. aureus UC-76. In kind it is cell-based.
Description: as §2

The next data set deals with S pyogenes C203. The description is as above. As to conditions: Gram positive bacteria; read-out: Minimum Inhibitory Concentrations S pyogenes C203. Format: cell-based.
Description: as §2

A further data set concerns S. pyogenes C-203. Description: In vivo activity (mouse), median protective dose in lethal systemic infection. As to conditions: mice. As to the method:
Test B—In Vivo Activity (Mouse)
The in vivo activity was obtained when the compounds were tested according to the procedure of Miller, et al. (Proc. Soc. Exp. Biol. Med., 1944; 57:261). The median protective dose (PD50) was determined in mice given lethal systemic infections, as depicted in Table 4.

Description for E. faeciaum EF4-3525: (§3) The compounds of the present invention were tested against an assortment of drug resistant organisms described below using standard microtitration techniques (Cohen, et. al., Antimicrob. Agents Chemother., 1985; 28:766; Heifetz, et. al., Antimicrob. Agents Chemother, 1974; 6:124). […] E. faeciaum EF4-3525: Vancomicin resitant strain. • 5. E. faeciaum EF4-3836: Multiple drug resitant strain (lineozolid, AZD2563-R, vancomicin, ampicillin, macrolide-R, quinolone-R, trimeothprim/sulfamethoxazole). • 6.
Description for E. faeciaum EF4-3836: as §3

Regarding `CC(=O)NC[C@H]1CN(c2ccc3c(c2)CCCc2cnoc2-3)C(=O)O1` [Example 3A, (S)-N-[3-(5,6-dihydro-4H-1-oxa-2-aza-benzo[e]azulen-8-yl)-2-oxo-oxalidin-5-ylmethyl]acetamide], the MIC in the data set on S. aureus SA-3840 stood at 4 µg/mL (≈ 11.7 µM); in the data set on S. aureus SA-3839, 4 µg/mL (≈ 11.7 µM); in the data set on E. faecalis EF-13524, 0.25 µg/mL (≈ 0.732 µM); with S. pneumoniae SP-3561 it was 0.25 µg/mL (≈ 0.732 µM); with S. pyogenes SP1-3541, 0.5 µg/mL (≈ 1.46 µM); in the data set with E. faecalis EF-3838, 1 µg/mL (≈ 2.93 µM). Moreover, the MIC amounted to 1 µg/mL (≈ 2.93 µM) in the data set with E. faeciaum EF4-3836; 4 µg/mL (≈ 11.7 µM) in the data set with S. pneumoniae SP-3536; 48 µg/mL (≈ 141 µM) in the data set with S. aureus SA-3528; 2 µg/mL (≈ 5.86 µM) with H. influenziae Hi-3113; 0.5 µg/mL (≈ 1.46 µM) in the data set on S. aureus SA-2017; 0.5 µg/mL (≈ 1.46 µM) with E. faeciaum EF4-3525.

Consider `CC(=O)NC[C@H]1CN(c2ccc3c(c2)CCCc2cn[nH]c2-3)C(=O)O1` [Example 3, (S)-N-[2-Oxo-3-(1,4,5,6-tetrahydro-1,2-diaza-benzo[e]azulen-8-yl)oxazolidin-5-ylmethyl]acetamide], for which the MIC is 16 µg/mL (≈ 47 µM) with S. aureus SA-3839; 0.25 µg/mL (≈ 0.734 µM) in the data set with E. faecalis EF-13524; 2 µg/mL (≈ 5.88 µM) in the data set on M. catarrhalis BC3534; over 64 µg/mL in the data set on E. coli Tol C; 2 µg/mL (≈ 5.88 µM) in the data set on H. influenzae HI3542; 0.5 µg/mL (≈ 1.47 µM) in the data set on E. faecalis EF-3838. Besides, the MIC in the data set on E. faeciaum EF4-3836 was determined as 1 µg/mL (≈ 2.94 µM); in the data set with S. aureus SA-3528, 8 µg/mL (≈ 23.5 µM); with E. faecalis MGH-2, 0.25 µg/mL (≈ 0.734 µM); with S. aureus UC-76, 0.5 µg/mL (≈ 1.47 µM); with S pyogenes C203, 0.125 µg/mL (≈ 0.367 µM); in the data set with S. aureus SA-2017 it was 1 µg/mL (≈ 2.94 µM). In addition, the MIC in the data set on E. faeciaum EF4-3525 was found to be 0.5 µg/mL (≈ 1.47 µM). Also, the “PD50 (median protective dose)” value with S. pyogenes C-203 (S. pyogenes C-203, oral) is 6.4 mg/kg; in the data set on S. pyogenes C-203 (S. pyogenes C-203, subcutaneous), 2.1 mg/kg.

With `CC(=O)NC[C@H]1CN(c2ccc3c(c2)CCCc2c(-c4ccccc4)n[nH]c2-3)C(=O)O1` [Example 98, (S)-N-[2-Oxo-3-(3-phenyl-1,4,5,6-tetrahydro-1,2-diaza-benzo[e]azulen-8-yl)-oxazolidin-5-ylmethyl]-acetamide], the MIC in the data set on M. catarrhalis BC3534 was 2 µg/mL (≈ 4.8 µM); in the data set on E. coli Tol C, over 64 µg/mL; in the data set with H. influenzae HI3542 it was 8 µg/mL (≈ 19.2 µM); with E. faecalis MGH-2, 0.5 µg/mL (≈ 1.2 µM); in the data set with S. aureus UC-76 it was 0.5 µg/mL (≈ 1.2 µM); in the data set on S pyogenes C203, 0.5 µg/mL (≈ 1.2 µM).

With `CC(=O)NC[C@H]1CN(c2ccc3c(c2)CCCc2cn(C)nc2-3)C(=O)O1` [Example 122, (S)-N-[3-(2-Methyl-2,4,5,6-tetrahydro-1,2-diaza-benzo[e]azulen-8-yl)-2-oxo-oxazolidin-5-ylmethyl]-acetamide], the MIC with M. catarrhalis BC3534 is over 64 µg/mL; in the data set on E. coli Tol C, over 64 µg/mL; with H. influenzae HI3542, over 64 µg/mL; in the data set with E. faecalis MGH-2 it was 1 µg/mL (≈ 2.82 µM); in the data set on S. aureus UC-76, 1 µg/mL (≈ 2.82 µM); in the data set on S pyogenes C203 it was 0.5 µg/mL (≈ 1.41 µM).

Regarding `O=C1O[C@@H](COc2ccccn2)CN1c1ccc2c(c1)CCCc1cnoc1-2` [Example 165, (R)-3-(5,6-Dihydro-4H-1-oxa-2-aza-benzo[e]azulen-8-yl)-5-(pyridin-2-yloxymethyl)-oxazolidin-2-one], the MIC in the data set with M. catarrhalis BC3534 is over 64 µg/mL; with E. coli Tol C it was over 64 µg/mL; in the data set with H. influenzae HI3542 it was over 64 µg/mL; in the data set with E. faecalis MGH-2, 4 µg/mL (≈ 10.6 µM); with S. aureus UC-76 it was 4 µg/mL (≈ 10.6 µM); in the data set with S pyogenes C203, 2 µg/mL (≈ 5.3 µM).

For `CC(=O)NC[C@H]1CN(c2ccc3c(c2)CCCc2c(-c4ccc(F)cc4)n[nH]c2-3)C(=O)O1` [Example 95, (S)-N-{3-[3-(4-Fluoro-phenyl)-1,4,5,6-tetrahydro-1,2-diaza-benzo[e]azulen-8-yl]-2-oxo-oxazolidin-5-ylmethyl}-acetamide], the MIC in the data set with M. catarrhalis BC3534 is 1 µg/mL (≈ 2.3 µM); with E. coli Tol C, over 64 µg/mL; in the data set on H. influenzae HI3542, 8 µg/mL (≈ 18.4 µM); in the data set with E. faecalis MGH-2 it was 0.5 µg/mL (≈ 1.15 µM); with S. aureus UC-76, 4 µg/mL (≈ 9.21 µM); in the data set with S pyogenes C203, 0.5 µg/mL (≈ 1.15 µM).

As usually defined, the melting point is the temperature, or range, at which the solid turns liquid. `CC(C)(C)OC(=O)NC[C@H]1CN(c2ccc3c(c2)CCCc2cn[nH]c2-3)C(=O)O1` [Example 56, (S)-[2-Oxo-3-(1,4,5,6-tetrahydro-1,2-diaza-benzo[e]azulen-8-yl)-oxazolidin-5-ylmethyl]-carbamic acid tert-butyl ester] showed a melting point of 85 to 100 °C. The MIC in the data set on M. catarrhalis BC3534 came to 16 µg/mL (≈ 40.2 µM). Also, in the data set with E. coli Tol C, the MIC is over 64 µg/mL. Further, in the data set on H. influenzae HI3542, the MIC was over 64 µg/mL. For the same compound, the MIC in the data set on E. faecalis MGH-2 is 4 µg/mL (≈ 10 µM). The MIC with S. aureus UC-76 is 1 µg/mL (≈ 2.51 µM). Moreover, the MIC with S pyogenes C203 was determined as 4 µg/mL (≈ 10 µM).

In the case of `O=C1O[C@@H](COc2ccccn2)CN1c1ccc2c(c1)CCCc1cn[nH]c1-2` [Example 164, (R)-5-(Pyridin-2-yloxymethyl)-3-(1,4,5,6-tetrahydro-1,2-diaza-benzo[e]azulen-8-yl)-oxazolidin-2-one], the MIC in the data set with M. catarrhalis BC3534 is over 64 µg/mL; in the data set on E. coli Tol C, over 64 µg/mL; in the data set on H. influenzae HI3542 it was over 64 µg/mL; with E. faecalis MGH-2 it was 4 µg/mL (≈ 10.6 µM); with S. aureus UC-76 it was 4 µg/mL (≈ 10.6 µM); in the data set with S pyogenes C203, 2 µg/mL (≈ 5.31 µM).
